# Results from patent US9849130B2 (KamTek, Inc., priority 2014, dated 2017).
# Several values for one entry are separate records, joined by “and”; a condition that tells them apart may be missing. Equal values may be shown once. Read-outs that look alike come from different tables or passages of the source.
# Legend:
# [1] = test system: Staphylococcus aureus strains; experiment: MIC by microdilution in Mueller-Hinton broth against Staphylococcus aureus strains; type: cell-based; details: Staphylococcus aureus
# [2] = test system: Enterococcus faecalis; experiment: MIC by microdilution in Mueller-Hinton broth against Enterococcus faecalis strains; type: cell-based; details: Enterococcus faecalis
# [3] = test system: Escherichia coli strains; experiment: MIC by microdilution in Mueller-Hinton broth against Escherichia coli strains; type: cell-based; details: for MIC: Escherichia coli, Mueller-Hinton broth, read-out: MIC
# [4] = test system: Enterococci faecium; experiment: MIC by microdilution in Mueller-Hinton broth against Enterococci faecium strains; type: cell-based, Enterococcus faecium; details: Enterococcus faecium, Mueller-Hinton broth, read-out: MIC
# [5] = test system: Clostridium difficile (CD) strains; experiment: microbe, parasite or virus in culture; type: cell-based
# [6] = test system: Bacteroides Strains; experiment: MIC by microdilution in Brucella broth against Bacteroides strains; type: cell-based, Bacteroides spp.
# [7] = S. aureus NR 10129, read-out: MIC
# [8] = S. aureus NR 10186, read-out: MIC
# [9] = S. aureus NR 10187, read-out: MIC
# [10] = S. aureus NR 10188, read-out: MIC
# [11] = S. aureus NR 10189, read-out: MIC
# [12] = S. aureus NR 10191, read-out: MIC
# [13] = S. aureus NR 10192, read-out: MIC
# [14] = S. aureus NR 10193, read-out: MIC
# [15] = S. aureus NR 10194, read-out: MIC
# [16] = S. aureus NR 10198, read-out: MIC
# [17] = Staphylococcus aureus strain NR 10129, read-out: MIC
# [18] = Staphylococcus aureus strain NR 10186, read-out: MIC
# [19] = Staphylococcus aureus strain NR 10187, read-out: MIC
# [20] = Staphylococcus aureus strain NR 10188, read-out: MIC
# [21] = Staphylococcus aureus strain NR 10189, read-out: MIC
# [22] = Staphylococcus aureus strain NR 10191, read-out: MIC
# [23] = Staphylococcus aureus strain NR 10192, read-out: MIC
# [24] = Staphylococcus aureus strain NR 10193, read-out: MIC
# [25] = Staphylococcus aureus strain NR 10194, read-out: MIC
# [26] = Staphylococcus aureus strain NR 10198, read-out: MIC
# [27] = E. faecalis NR 31884, read-out: MIC
# [28] = E. faecalis NR 31885, read-out: MIC
# [29] = E. faecalis NR 31886, read-out: MIC
# [30] = E. faecalis NR 31887, read-out: MIC
# [31] = E. faecalis NR 31888, read-out: MIC
# [32] = Escherichia coli strain NR 17626
# [33] = Escherichia coli strain NR 17627
# [34] = Escherichia coli strain NR 17633
# [35] = Escherichia coli strain NR 17647
# [36] = Escherichia coli strain NR 17650
# [37] = Escherichia coli strain NR 17661
structure (smiles),measurement,setting,value
"NCC[C@H](O)C(=O)N[C@@H]1C[C@H](N)[C@@H](O[C@H]2O[C@H](CN)[C@@H](O)[C@H](O)[C@H]2O)[C@H](O)[C@H]1O[C@H]1O[C@H](CO)[C@@H](O)[C@H](N)[C@H]1O [AMK, amikacin]",MIC,[1]; [7],2 µg/mL
same,MIC,[1]; [8],32 µg/mL
same,MIC,[1]; [9],> 32 µg/mL
same,MIC,[1]; [10],> 32 µg/mL
same,MIC,[1]; [11],4 µg/mL
same,MIC,[1]; [12],32 µg/mL
same,MIC,[1]; [13],> 32 µg/mL
same,MIC,[1]; [14],> 32 µg/mL
same,MIC,[1]; [15],32 µg/mL
same,MIC,[1]; [16],> 32 µg/mL
same,MIC,[1]; [17],2 µg/mL
same,MIC,[1]; [18],32 µg/mL
same,MIC,[1]; [19],> 32 µg/mL
same,MIC,[1]; [20],> 32 µg/mL
same,MIC,[1]; [21],4 µg/mL
same,MIC,[1]; [22],32 µg/mL
same,MIC,[1]; [23],> 32 µg/mL
same,MIC,[1]; [24],> 32 µg/mL
same,MIC,[1]; [25],32 µg/mL
same,MIC,[1]; [26],> 32 µg/mL
same,MIC,[2]; [27],> 32 µg/mL
same,MIC,[2]; [28],> 32 µg/mL
same,MIC,[2]; [29],> 32 µg/mL
same,MIC,[2]; [30],> 32 µg/mL
same,MIC,[2]; [31],> 32 µg/mL
same,MIC,[3]; E. coli NR 6,4 µg/mL
same,MIC,[3]; E. coli NR 8,4 µg/mL
same,MIC,[3]; E. coli NR 96,8 µg/mL
same,MIC,[3]; E. coli NR 104,2 µg/mL
same,MIC,[3]; E. coli NR 17626,16 µg/mL
same,MIC,[3]; E. coli NR 17627,8 µg/mL
same,MIC,[3]; E. coli NR 17633,8 µg/mL
same,MIC,[3]; E. coli NR 17647,2 µg/mL
same,MIC,[3]; E. coli NR 17650,8 µg/mL
same,MIC,[3]; E. coli NR 17661,2 µg/mL
same,MIC,[3]; Escherichia coli strain NR 6,4 µg/mL
same,MIC,[3]; Escherichia coli strain NR 8,4 µg/mL
same,MIC,[3]; Escherichia coli strain NR 96,8 µg/mL
same,MIC,[3]; Escherichia coli strain NR 104,2 µg/mL
same,MIC,[3]; [32],16 µg/mL
same,MIC,[3]; [33],8 µg/mL
same,MIC,[3]; [34],8 µg/mL
same,MIC,[3]; [35],2 µg/mL
same,MIC,[3]; [36],8 µg/mL
same,MIC,[3]; [37],2 µg/mL
same,MIC,[4]; E. faecium NR 31903,> 32 µg/mL
same,MIC,[4]; E. faecium NR 31909,> 32 µg/mL
same,MIC,[4]; E. faecium NR 31912,> 32 µg/mL
same,MIC,[4]; E. faecium NR 31915,> 32 µg/mL
same,MIC,[4]; E. faecium NR 31916,> 32 µg/mL
CC1(C)CC(N=c2cc3n(-c4ccc(Cl)c(Cl)c4)c4ccccc4nc-3cc2Nc2ccc(Cl)c(Cl)c2)CC(C)(C)N1 [B4100],MIC,[5],0.25 µg/mL and 0.125 µg/mL
"CC1(C)S[C@@H]2[C@H](NC(=O)[C@H](N)c3ccccc3)C(=O)N2[C@H]1C(=O)O [AMP, ampicillin]",MIC,[1]; [7],> 32 µg/mL
same,MIC,[1]; [8],> 32 µg/mL
same,MIC,[1]; [9],8 µg/mL
same,MIC,[1]; [10],16 µg/mL
same,MIC,[1]; [11],32 µg/mL
same,MIC,[1]; [12],> 32 µg/mL
same,MIC,[1]; [13],32 µg/mL
same,MIC,[1]; [14],> 32 µg/mL
same,MIC,[1]; [15],2 µg/mL
same,MIC,[1]; [16],> 32 µg/mL
same,MIC,[1]; [17],> 32 µg/mL
same,MIC,[1]; [18],> 32 µg/mL
same,MIC,[1]; [19],8 µg/mL
same,MIC,[1]; [20],16 µg/mL
same,MIC,[1]; [21],32 µg/mL
same,MIC,[1]; [22],> 32 µg/mL
same,MIC,[1]; [23],32 µg/mL
same,MIC,[1]; [24],> 32 µg/mL
same,MIC,[1]; [25],2 µg/mL
same,MIC,[1]; [26],> 32 µg/mL
same,MIC,[2]; [27],4 µg/mL
same,MIC,[2]; [28],4 µg/mL
same,MIC,[2]; [29],4 µg/mL
same,MIC,[2]; [30],0.5 µg/mL
same,MIC,[2]; [31],4 µg/mL
same,MIC,[3]; E. coli NR 6,2 µg/mL
same,MIC,[3]; E. coli NR 8,4 µg/mL
same,MIC,[3]; E. coli NR 96,4 µg/mL
same,MIC,[3]; E. coli NR 104,4 µg/mL
same,MIC,[3]; E. coli NR 17626,4 µg/mL
same,MIC,[3]; E. coli NR 17627,4 µg/mL
same,MIC,[3]; E. coli NR 17633,4 µg/mL
same,MIC,[3]; E. coli NR 17647,4 µg/mL
same,MIC,[3]; E. coli NR 17650,4 µg/mL
same,MIC,[3]; E. coli NR 17661,> 32 µg/mL
same,MIC,[3]; Escherichia coli strain NR 6,2 µg/mL
same,MIC,[3]; Escherichia coli strain NR 8,4 µg/mL
same,MIC,[3]; Escherichia coli strain NR 96,4 µg/mL
same,MIC,[3]; Escherichia coli strain NR 104,4 µg/mL
same,MIC,[3]; [32],4 µg/mL
same,MIC,[3]; [33],4 µg/mL
same,MIC,[3]; [34],4 µg/mL
same,MIC,[3]; [35],4 µg/mL
same,MIC,[3]; [36],4 µg/mL
same,MIC,[3]; [37],> 32 µg/mL
same,MIC,[4]; E. faecium NR 31903,> 32 µg/mL
same,MIC,[4]; E. faecium NR 31909,> 32 µg/mL
same,MIC,[4]; E. faecium NR 31912,> 32 µg/mL
same,MIC,[4]; E. faecium NR 31915,2 µg/mL
same,MIC,[4]; E. faecium NR 31916,> 32 µg/mL
"O=C1C(NC2CCCCCCC2)=CC(=O)c2ncccc21 [AZQ, 6-(cyclooctylamino)-5,8-quinolinequinone]",MIC Range,[5],0.25 to 1 µg/mL
same,MIC90,[5]; Clostridioides difficile,1 µg/mL
same,MIC,[1]; [7],32 µg/mL
same,MIC,[1]; [8],16 µg/mL
same,MIC,[1]; [9],> 32 µg/mL
same,MIC,[1]; [10],32 µg/mL
same,MIC,[1]; [11],16 µg/mL
same,MIC,[1]; [12],8 µg/mL
same,MIC,[1]; [13],32 µg/mL
same,MIC,[1]; [14],16 µg/mL
same,MIC,[1]; [15],16 µg/mL
same,MIC,[1]; [16],16 µg/mL
same,MIC,"[6]; B. caccae HM728, read-out: MIC",2 µg/mL
same,MIC,"[6]; B. eggerthii HM210, read-out: MIC",2 µg/mL
same,MIC,"[6]; B. fragilis HM709, read-out: MIC",2 µg/mL
same,MIC,"[6]; B. fragilis HM710, read-out: MIC",2 µg/mL
same,MIC,"[6]; B. fragilis HM714, read-out: MIC",2 µg/mL
same,MIC,"[6]; B. ovatus HM222, read-out: MIC",1 µg/mL
same,MIC,"[6]; B. stercoris HM1036, read-out: MIC",2 µg/mL
same,MIC,"[6]; Bacteroides, B. spp. HM19",4 µg/mL
same,MIC,"[6]; Bacteroides, B. spp. HM23, read-out: MIC",2 µg/mL
same,MIC,"[6]; Bacteroides, B. spp. HM27",1 µg/mL
same,MIC,"[6]; Bacteroides, B. spp. HM58",4 µg/mL
same,MIC,[2]; [27],32 µg/mL
same,MIC,[2]; [28],32 µg/mL
same,MIC,[2]; [29],32 µg/mL
same,MIC,[2]; [30],16 µg/mL
same,MIC,[2]; [31],32 µg/mL
same,activity against E. coli (in words),[3],no activity
same,MIC,[3]; E. coli NR 6,> 32 µg/mL
same,MIC,[3]; E. coli NR 8,> 32 µg/mL
same,MIC,[3]; E. coli NR 96,> 32 µg/mL
same,MIC,[3]; E. coli NR 104,> 32 µg/mL
same,MIC,[3]; E. coli NR 17626,> 32 µg/mL
same,MIC,[3]; E. coli NR 17627,> 32 µg/mL
same,MIC,[3]; E. coli NR 17633,> 32 µg/mL
same,MIC,[3]; E. coli NR 17647,> 32 µg/mL
same,MIC,[3]; E. coli NR 17650,> 32 µg/mL
same,MIC,[3]; E. coli NR 17661,> 32 µg/mL
same,MIC,[4]; E. faecium NR 31903,> 32 µg/mL
same,MIC,[4]; E. faecium NR 31909,32 µg/mL
same,MIC,[4]; E. faecium NR 31912,32 µg/mL
same,MIC,[4]; E. faecium NR 31915,> 32 µg/mL
same,MIC,[4]; E. faecium NR 31916,16 µg/mL
